The subject of data set [1] is SH-SY5Y cells. Put plainly: Ionophore assay: cellular metal levels by ICP-MS. The format is cell-based. Conditions: 20 μM, 6 hours; for Cu uptake compared to 8HQ: FIG. 1; for Cu uptake, fold increase than that of PBT2: FIG. 3. As to the method:
Cells were maintained at 37° C. with 5% CO2 and passaged every 3-4 days. Compounds (10 mM) were solubilized in DMSO (Sigma). CQ and PBT2 were used as positive controls. Cells were treated with growth media supplemented with each compound ([…]) or vehicle for 6 hours. Cells were harvested and metal levels were measured with Inductively-Coupled Plasma Mass Spectrometry (Varian), as previously described. […] Data represents the mean and S.E.M. of at least 9 replicates from 3 experiments. A oneway ANVOA with Fisher's LSD test was used to determine statistical differences relative to control (Prism 6, Graphpad).
Dashed line indicates control level. SH-SY5Y cells treated were treated with each compound (20 μM) for 6 hours and cellular metal levels were measured with ICP-MS.
(§1) SH-SY5Y cells treated were treated with each compound (20 μM) for 6 hours and cellular metal levels were measured with ICP-MS. Dashed line indicates control level.
as §1

In data set [2] the target is T1, soluble Aβ oligomers (Human A 1-42) (Homo sapiens, UniProt P05067).
T1 construct: Human A 1-42 (China Peptide); purchased China Peptide
T1 sequence (P05067 672-713): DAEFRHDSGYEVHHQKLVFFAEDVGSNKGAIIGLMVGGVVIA
Put plainly: Aβ aggregation assay (bis-ANS): reversal of aggregation of soluble Aβ oligomers. Type of data set: biochemical. The text has this:
4,4(′)-dianilino-1,1(′)-binaphthyl-5,5(′)-disulfonate (bis-ANS, Sigma) was used to assess whether compounds could reverse the aggregation of soluble A oligomers. (See, e.g., LeVine, H., 3rd, (2002) 4,4(′)-Dianilino-1,1(′)-binaphthyl-5,5(′)-disulfonate: report on non-beta-sheet conformers of Alzheimer's peptide beta(1-40), Arch Biochem Biophys 404, 106; Chen, W. T. et al., (2011) Distinct effects of Zn^2+, Cu^2+, Fe^3+, and Al^3+ on amyloid-beta stability, oligomerization, and aggregation: amyloid-beta destabilization promotes annular protofibril formation, J Biol Chem 286, 9646) Human A 1-42 (China Peptide) was dissolved in DMSO (Sigma) to a stock concentration of 1.5 mM. A ([…]) oligomers were induced with ZnSO4 (15 μM) at 26° C. for 30 min in a buffer (pH 7.4) containing Tris (50 mM), NaCl (150 mM) and bis-ANS (10 μM). Compounds (0.1 to 120 μM) dissolved in DMSO (Sigma) were added for 30 min. CQ and PBT2 were used as positive controls. Endpoint fluorescence (excitation=390 nm, emission=490 nm) was measured with a Flex Station (Molecular Devices) fluorescent plate reader. At each concentration, Aβ fluorescence was normalized to background fluorescence and then expressed as a percentage of vehicle treated control samples. […] Data represents the mean of at least 9 replicates from 3 experiments.

The subject of data set [3] is AD patients. Conditions: pilot phase II clinical trial, cited from earlier work.
The subject of data set [4] is patients with Huntington's disease and patients with AD. The note with it: phase II clinical trials; cited from earlier work.
Setting [5] is: Aβ oligomers induced with ZnSO4 (15 μM), bis-ANS fluorescence, compounds 0.1 to 120 μM for 30 min, pH 7.4, read-out: EC50 (μM), reversal of aggregation of soluble Aβ oligomers.

Where two headings read alike, the source gives them in different places.

For the molecule `Oc1cccc2cc(F)cnc12` [Compound 6], the “Cu uptake compared to 8HQ” value in data set [1] is given as “inferior to 8HQ”. Consider `CN(Cc1cn(CCCF)nn1)Cc1ccc2c(Cl)cc(Cl)c(O)c2n1` [Compound 29, 5,7-dichloro-2-((((1-(3-fluoropropyl)-1H-1,2,3-triazol-4-yl)methyl)(methyl)amino)methyl)quinolin-8-ol], for which, in data set [2] (setting [5]), the EC50 (usually the concentration giving half of the maximal effect) was found to be 4.5 µM. Moreover, in data set [1], the “Cu uptake, fold increase than that of PBT2” value came out at 16 fold. Turning to `Oc1ccccc1/N=C/c1ccc(F)cc1` [Compound 10], the 50% effective concentration (EC50) in data set [2] (setting [5]) was 15.4 µM. On to `Oc1c(Cl)cc(Cl)c2ccc(COCCF)nc12` [Compound 23, 5,7-dichloro-2-((2-fluoroethoxy)methyl)quinolin-8-ol], for which the concentration for a half-maximal effect (EC50) in data set [2] (setting [5]) is 2.4 µM.

With `Oc1c(I)cc(F)c2cccnc12` [Compound 17, 5-fluoro-7-iodo-8-hydroxyquinoline], in data set [2] (setting [5]), the 50% effective concentration (EC50) came out at 2.5 µM. On to `Oc1c(Cl)cc(F)c2cccnc12` [Compound 15, 7-chloro-5-fluoro-8-hydroxyquinoline], for which the EC50 in data set [2] (setting [5]) turned out to be 5.2 µM. Take `Oc1c(I)cc(Cl)c2cccnc12` [Clioquinol (CQ), 5-chloro-7-iodo-quinolin-8-ol]: the “rate of cognitive decline” value in data set [3] (AD patients) is “attenuated”. The tolerability result in data set [3] is given as “well tolerated”. In addition, the 50% effective concentration (EC50) in data set [2] (setting [5]) turned out to be 1.8 µM. Turning to `CN(Cc1cn(CCCCF)nn1)Cc1ccc2c(Cl)cc(Cl)c(O)c2n1` [Compound 30, 5,7-dichloro-2-((((1-(4-fluorobutyl)-1H-1,2,3-triazol-4-yl)methyl)(methyl)amino)methyl)quinolin-8-ol], in data set [2] (setting [5]), the EC50 was 2.8 µM. Further, the “Cu uptake, fold increase than that of PBT2” value in data set [1] is recorded as 8 fold.

Turning to `CN(Cc1cn(CCF)nn1)Cc1ccc2c(Cl)cc(Cl)c(O)c2n1` [Compound 28, 5,7-dichloro-2-((((1-(2-fluoroethyl)-1H-1,2,3-triazol-4-yl)methyl)(methyl)amino)methyl)quinolin-8-ol], the EC50 in data set [2] (setting [5]) came to 2.3 µM. For the same molecule, the “Cu uptake, fold increase than that of PBT2” value in data set [1] stood at 10 fold. Turning to `Oc1c(F)cc(I)c2cccnc12` [Compound 14, 7-fluoro-5-iodo-8-hydroxyquinoline], the concentration for a half-maximal effect (EC50) in data set [2] (setting [5]) is 2.3 µM. On to `Oc1c(Br)cc(F)c2cccnc12` [Compound 16, 7-bromo-5-fluoro-8-hydroxyquinoline], for which, in data set [2] (setting [5]), the concentration for a half-maximal effect (EC50) is 3.7 µM. On the same count and under the same terms, as for `Oc1c(F)cc(Cl)c2cccnc12` [Compound 12, 5-chloro-7-fluoro-8-hydroxyquinoline], the figure is 4.9 µM.

Turning to `CN(C)Cc1ccc2c(Cl)cc(Cl)c(O)c2n1` [PBT2, 5,7-Dichloro-2-((dimethylamino)methyl) 8-quinolinol, reference compound], the EC50 in data set [2] (setting [5]) was 2 µM. Moreover, the benefits in patients entry in data set [4] is “shown benefits”.

Regarding `Oc1c(Cl)cc(Cl)c2ccc(COCCCCF)nc12` [Compound 24, 5,7-dichloro-2-((4-fluorobutoxy)methyl)quinolin-8-ol], in data set [2] (setting [5]), the EC50 worked out at 2 µM.

With `Oc1c(F)cc(Br)c2cccnc12` [Compound 13, 5-bromo-7-fluoro-8-hydroxyquinoline], the concentration for a half-maximal effect (EC50) in data set [2] (setting [5]) is 3.5 µM.

`Oc1cccc2ccc(F)nc12` [Compound 5]: the EC50 in data set [2] is above 120 µM. Also, the “Cu uptake compared to 8HQ” value in data set [1] is on record as “inferior to 8HQ”.
